Experimental data reported in paper PMC6353850, “Supersensitive Odorant Receptor Underscores Pleiotropic Roles of Indoles in Mosquito Ecology” (Frontiers in Cellular Neuroscience, 2019).
Read-outs that look alike come from different tables or passages of the source.

Columns and labels:
AaegOR9 [1] = molecular target: T1, AaegOR9 (Aedes aegypti, UniProt Q177X5); assay: Two-electrode voltage clamp of Xenopus oocytes expressing AaegOR9-ORco (tuning curve and concentration-response); assay type: cell-based
Description: The methodologies and protocols have been described in details elsewhere (Bohbot and Dickens, [2009]). AaegOr9 and Aaeg-ORco cRNAs (Bohbot et al., [2011]) were synthesized from linearized pSP64DV expression vectors using the mMESSAGE mMACHINE® SP6 kit (Life Technologies). Stage V-VII oocytes were harvested from Xenopus laevis females, mechanically separated, treated with collagenase (8 mg/mL, 30 min, 18°C) and rinsed in washing solution (96 mM NaCl, 2 mM KCl, 5 mM MgCl2 and 5 mM HEPES, pH 7.6). Oocytes were microinjected with 27.6 ng AaegOr9 and AaegORco cRNAs, incubated at 18°C for 3–4 days in ND96 solution (96 mM NaCl, 2 mM KCl, 5 mM MgCl2, 0.8 mM CaCl2 and 5 mM HEPES, pH 7.6), supplemented with 5% dialyzed horse serum, 50 μg/mL tetracycline, 100 μg/mL streptomycin and 550 μg/mL sodium pyruvate. Whole-cell currents were recorded using the two-microelectrode voltage-clamp technique. During recording sessions, the holding potential was maintained at −80 mV using an OC-725C oocyte clamp (Warner Instruments, LLC, Hamden, CT, USA). Oocytes placed in a RC-3Z oocyte recording chamber (Warner Instruments, LLC, Hamden, CT, USA) were exposed to odorants for 8 s. Current was allowed to return to baseline between odorant applications. Data acquisition and concentration-response analyses were carried out with a Digidata 1550A and the pCLAMP10 software (Molecular Devices, Sunnyvale, CA, USA), and analyzed using GraphPad Prism 7 (GraphPad Software Inc., La Jolla, CA, USA). Stock concentration of odorants (10^−2 M) were dissolved in ringer solution containing 2% dimethyl sulfoxide (DMSO) in order to solubilize the hydrophobic indolic compounds.
The response profile was established using multiple sessions, each including six compounds at a time and indole as an internal reference. […] All the response values were normalized to the indole reference in each recording session (Supplementary Figure 1).
For the establishment of the concentration-response curves, oocytes were exposed to increasing concentrations of indole, skatole and indole-3-carboxaldehyde (I3C; Supplementary Figure 2). Quantitative characterization of OR sensitivity was estimated using the averaged effective concentration at 50% of the maximal response (EC50) over the sample population. The data to establish the concentration response curve and EC50 of AaegOR10-skatole was extracted from a previous study (Bohbot and Dickens, [2012]).
We also included indole and skatole as references (Bohbot et al., [2011]). The screen was carried out using a low odorant concentration (500 nM) in order to mitigate the caveats associated with high ligand concentrations, including receptor adaptation, antagonist effects and technical artifacts such as broad molecular receptive ranges (Bohbot and Pitts, [2015]).

AaegOR9 [2] = molecular target: T1, AaegOR9; design: method as in Bohbot et al., 2011; details: ref Bohbot et al., 2011; cited from earlier work
OR02-ORco [3] = system: OR02-ORco; design: method as in Bohbot et al., 2011; details: Aedes aegypti OR02-ORco; kairomone receptor; ref Bohbot et al., 2011; cited from earlier work
OR02-ORco [4] = system: OR02-ORco; design: method as in Pelletier et al., 2010; details: Culex quinquefasciatus OR02-ORco; kairomone receptor; ref Pelletier et al., 2010; cited from earlier work
OR02-ORco [5] = system: OR02-ORco; design: method as in Wang et al., 2010; details: Anopheles gambiae OR02-ORco; kairomone receptor; ref Wang et al., 2010; cited from earlier work

T1 sequence (Q178U6 whole entry): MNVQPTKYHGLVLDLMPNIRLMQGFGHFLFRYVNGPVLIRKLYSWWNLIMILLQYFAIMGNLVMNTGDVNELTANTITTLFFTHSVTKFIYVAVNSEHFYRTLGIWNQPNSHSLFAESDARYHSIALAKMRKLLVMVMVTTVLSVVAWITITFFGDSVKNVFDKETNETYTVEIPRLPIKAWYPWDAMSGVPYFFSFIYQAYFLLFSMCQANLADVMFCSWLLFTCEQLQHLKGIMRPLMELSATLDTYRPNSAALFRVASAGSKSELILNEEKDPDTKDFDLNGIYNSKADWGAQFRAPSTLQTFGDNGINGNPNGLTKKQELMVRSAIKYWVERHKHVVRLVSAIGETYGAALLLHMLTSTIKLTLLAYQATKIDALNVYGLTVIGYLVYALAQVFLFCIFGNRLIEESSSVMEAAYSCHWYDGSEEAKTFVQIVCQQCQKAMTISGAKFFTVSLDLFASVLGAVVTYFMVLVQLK
T1 sequence (Q177X5 entry or part of it): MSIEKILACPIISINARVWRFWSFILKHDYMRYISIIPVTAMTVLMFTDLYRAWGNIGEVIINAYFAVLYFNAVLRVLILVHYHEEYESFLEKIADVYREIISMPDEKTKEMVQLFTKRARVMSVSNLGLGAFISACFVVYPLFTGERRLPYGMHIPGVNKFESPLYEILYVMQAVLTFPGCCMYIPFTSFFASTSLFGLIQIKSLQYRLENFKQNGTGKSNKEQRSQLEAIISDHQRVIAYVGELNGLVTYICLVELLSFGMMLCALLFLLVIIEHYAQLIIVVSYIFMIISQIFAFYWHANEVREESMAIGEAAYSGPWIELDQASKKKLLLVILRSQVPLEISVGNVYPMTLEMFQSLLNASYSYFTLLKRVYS

Structure (SMILES): c1ccc2[nH]ccc2c1 [indole, 1H-indole]
- Ligand potency in AaegOR9 tuning curve (in words) (AaegOR9 [1]; 500 nM odorant, panel of 31 indole derivatives): next most potent ligands
- Rank according to potency (No.) (AaegOR9 [1]; AaegOR9 tuning curve of Figure 1, 500 nM, 1 = most potent of 31): 3
- Concentration range activating AaegOR9 (AaegOR9 [2]): low micromolar
- EC50 (OR02-ORco [3]): 370 nM
- EC50 (OR02-ORco [4]): 280 nM
- EC50 (OR02-ORco [5]): 167 nM
